Here are results for five compounds from patent publication US20100285959A1, “HERBICIDAL MIXTURES” (priority 2006, published 2010).

Series [1] relates to Virginia pepperweed (LEPVI). Kind of series: Test 3 field trial, emerged weeds before corn planting. The settings on record: Cpd 2 100, glyphosate 1540, paraquat 1150 g a.i./ha, alone or combined. Format: in vivo, Lepidium virginicum. From the text: (§1) Corn seeds (hybrid ‘Pioneer 33J56’) were planted in early spring season, 3.8 cm deep in a silt loam soil having 2.4% organic matter and a pH of 6. Plots were 6.1 m long by 2.7 m wide with rows spaced 91.4 cm apart. The field was managed using no-till practices. […] Compound 2 and paraquat treatments, alone and in combination, also included a surfactant. Glyphosate, alone and with Compound 2, included ammonium sulfate in the treatment mixture. […] The effects on the weeds in the treated plots and untreated control plots were recorded 30, 42, 46 and 68 days after application. Most of the weed species could not be evaluated at every timing. Corn response was not evaluated because the growth was highly variable depending on the efficacy of the weed control treatments. […] Results are the means of the three replicates.

A further series deals with giant foxtail (SETFA). The description is as above. The format is in vivo, Setaria faberi. The note with it: 68 DAA; Cpd 2 100, glyphosate 1540, paraquat 1150 g a.i./ha, alone or combined.
From the text: as §1

A further series deals with annual grasses (GGGAN). Description: Test 7 field trial, preemergence. Format: in vivo, Gramineae. The procedure: Plots were 7.6 m long by 3.0 m wide with rows spaced 76 cm apart. Seeds were spaced 15 cm apart within the rows. The field was managed using conventional tillage practices. […] Wild radish was evaluated 14 and 28 days after application. […] Results are the means of the three replicates.

A further series relates to velvetleaf (ABUTH). Description: Test 14 field trial, preemergence, growth as percent of control. Format: in vivo, Abutilon theophrasti. From the text: (§2) Corn seeds (hybrid ‘Pioneer 31G96 RR’) were planted in mid spring season, 3.8 cm deep in a clay loam soil having 2% organic matter and a pH of 6.6. Plots were 6.1 m long by 3.0 m wide with rows spaced 76 cm apart. Seeds were spaced 15 cm apart within the rows. The field was managed using conventional tillage practices. […] Yellow nutsedge was only evaluated 19 and 28 days after application, and ivyleaf morningglory could only be evaluated 28 days after application. […] Results are the means of the three replicates. This growth inhibition data was converted to results in the form of “plant growth as a percent of control plant growth” using the calculation “100 minus growth inhibition”. […] For “growth as a percent of control” data, Colby's Equation calculates the expected additive effect of herbicidal mixtures having two active ingredients as follows:
(§3) Ga+b=GaGb/100 • wherein Ga+b is the growth as a percent of control of plants treated with the mixture expected from additive contribution of the individual components, • Ga is the observed growth as a percent of control of plants treated with the first active ingredient at the same use rate as in the mixture, and • Gb is the observed growth as a percent of control of plants treated with the second active ingredient at the same use rate as in the mixture. For mixtures having three active ingredients, Colby's Equation to calculate the expected additive effect of herbicidal mixtures is as follows:
(§4) Ga+b+c=GaGbGc/10,000 • wherein Ga and Gb are as defined above and • Ga+b+c is the growth as a percent of control of plants treated with the mixture expected from additive contribution of the individual components, and • Gc is the observed growth as a percent of control of plants treated with the third active ingredient at the same use rate as in the mixture. When these two forms of Colby's Equation are used, if the observed effects on weeds are less than the expected values, the mixture is synergistic.

For a further series, the system named is jimsonweed (DATST). Described as above. The format is in vivo, Datura stramonium.
From the text: as §2, §3, §4

The next series relates to winter wheat (TRZAW). Description: Test 21 growth chamber, postemergence. The format is in vivo, Triticum aestivum. The settings on record: 19 DAA. As to the method:
(§5) A test was conducted to evaluate the effects on winter barley (HORVW, Hordeum vulgare L.), winter wheat (TRZAW, Triticum aestivum L.), and several weed species, of mixtures of Compound 2 with the commercial herbicide (2,4-dichlorophenoxy)acetic acid (2,4-D), an auxin mimic. […] Plants were treated postemergence at the 2-4 leaf growth stage, and each treatment was replicated one time. […] Plants were watered as needed. […] Results are from single replicates.

Series [2] deals with common lambsquarters (CHEAL). Description: Test 21 growth chamber, postemergence. The format is in vivo, Chenopodium album. The settings on record: 19 DAA. The procedure:
as §5

The test system of a further series is winter barley (HORVW). Description: Test 22 growth chamber, postemergence. The settings on record: 25 DAA. The format is in vivo, Hordeum vulgare. As to the method: A test was conducted to evaluate the effects on winter barley (HORVW, Hordeum vulgare L.), winter wheat (TRZAW, Triticum aestivum L.), and several weed species of mixtures of Compound 2 with the commercial herbicides (2,4-dichlorophenoxy)acetic acid (2,4-D) and (4-chloro-2-methylphenoxy)acetic acid (MCPA), auxin mimics. […] Plants were treated postemergence at the 2-4 leaf growth stage, except KCHSC, SASKR and STEME which were in the 4-8 leaf growth stage. Each treatment was replicated one time. […] Plants were watered as needed. […] Results are from single replicates.

A further series has as its system wheat (TRZAW). Description: Test 30 growth chamber, postemergence. Format: in vivo, Triticum aestivum. The procedure: A growth chamber test was conducted to evaluate the effects on the plant species wheat (TRZAW, Triticum aestivum L.) and barley (HORVX, Hordeum vulgare L.) with mixtures of Compound 1 and Compound 2 with glycerol. Wheat and barley seeds were planted in a sandy loam soil having 0.9% organic matter and a pH of 6.3. […] Wheat and barley plants were treated postemergence at the two leaf growth stage for Compound 1 and at the three leaf growth stage for Compound 2. Each treatment was replicated one time. […] Plants were watered as needed. […] Colby's Equation was used to determine herbicidal effects expected from the mixtures.

Consider `COC(=O)c1nc(C2CC2)nc(N)c1Cl` [Compound 2, methyl 6-amino-5-chloro-2-cyclopropyl-4-pyrimidinecarboxylate], for which the results for the “LEPVI Obs” value in [1] (30 DAA), in series [1] (42 DAA) and in series [1] (46 DAA) were 69%, 18% and 23%, respectively. Moreover, in the series on giant foxtail (SETFA), the “SETFA Obs” value came out at 40%. Moreover, the “GGGAN Obs” value worked out at 33% in the series on annual grasses (GGGAN) (14 DAA, 125 g a.i./ha); 65% in the series on annual grasses (GGGAN) (14 DAA, 250 g a.i./ha); 67% in the series on annual grasses (GGGAN) (14 DAA, 500 g a.i./ha); 33% in the series with annual grasses (GGGAN) (28 DAA, 125 g a.i./ha); 48% with annual grasses (GGGAN) (28 DAA, 250 g a.i./ha); 52% in the series on annual grasses (GGGAN) (28 DAA, 500 g a.i./ha). Besides, the “GGGAN Obs” value in the series on annual grasses (GGGAN) (62 DAA, 125 g a.i./ha) is given as 0%; in the series on annual grasses (GGGAN) (62 DAA, 250 g a.i./ha), 0%; in the series on annual grasses (GGGAN) (62 DAA, 500 g a.i./ha) it was 0%. In addition, the “Obs growth % of control” value was 80% with velvetleaf (ABUTH) (19 DAA, 75 g a.i./ha); 60% with velvetleaf (ABUTH) (19 DAA, 100 g a.i./ha); 43% in the series with velvetleaf (ABUTH) (28 DAA, 75 g a.i./ha); 22% in the series on velvetleaf (ABUTH) (28 DAA, 100 g a.i./ha); 43% in the series on velvetleaf (ABUTH) (56 DAA, 75 g a.i./ha); 30% in the series on velvetleaf (ABUTH) (56 DAA, 100 g a.i./ha). Moreover, the “Obs growth % of control” value in the series with jimsonweed (DATST) (19 DAA, 75 g a.i./ha) is recorded as 93%; with jimsonweed (DATST) (19 DAA, 100 g a.i./ha), 73%; with jimsonweed (DATST) (28 DAA, 75 g a.i./ha), 32%; in the series with jimsonweed (DATST) (28 DAA, 100 g a.i./ha) it was 30%; in the series with jimsonweed (DATST) (56 DAA, 75 g a.i./ha), 0%; with jimsonweed (DATST) (56 DAA, 100 g a.i./ha), 5%. Moreover, the “Postemergence TRZAW Obs” value in the series with winter wheat (TRZAW) (Cpd 2 alone 16 g a.i./ha) came out at 50. Further, in series [2] (Cpd 2 alone 16 g a.i./ha), the “Postemergence CHEAL Obs” value was determined as 60. Further, the “Postemergence HORVW Obs” value in the series with winter barley (HORVW) (Cpd 2 alone 4 g a.i./ha) is recorded as 30; in the series with winter barley (HORVW) (Cpd 2 alone 8 g a.i./ha), 35; in the series with winter barley (HORVW) (Cpd 2 alone 16 g a.i./ha), 40. The TRZAW Obs in the series on wheat (TRZAW) (17 DAA, Cpd 2 1 g a.i./ha) was 20%; in the series with wheat (TRZAW) (17 DAA, Cpd 2 4 g a.i./ha), 20%; in the series on wheat (TRZAW) (17 DAA, Cpd 2 16 g a.i./ha), 35%.

As to `O=C(O)CNCP(=O)(O)O` [Glyphosate], the results for the “LEPVI Obs” value in series [1] (30 DAA), in series [1] (42 DAA) and in series [1] (46 DAA) were 98%, 82% and 98%, respectively. The “SETFA Obs” value with giant foxtail (SETFA) came to 0%.

On to `CCc1cccc(C)c1N(C(=O)CCl)[C@@H](C)COC` [S-Metolachlor, S-metolachlor, reference compound], for which the “GGGAN Obs” value was 97% with annual grasses (GGGAN) (14 DAA, 1000 g a.i./ha); 93% with annual grasses (GGGAN) (28 DAA, 1000 g a.i./ha); 75% in the series on annual grasses (GGGAN) (62 DAA, 1000 g a.i./ha). Besides, the “Obs growth % of control” value is 68% with velvetleaf (ABUTH) (19 DAA, 1870 g a.i./ha); 6% in the series on velvetleaf (ABUTH) (28 DAA, 1870 g a.i./ha); 87% with velvetleaf (ABUTH) (56 DAA, 1870 g a.i./ha); 100% in the series on jimsonweed (DATST) (19 DAA, 1870 g a.i./ha); 22% in the series with jimsonweed (DATST) (28 DAA, 1870 g a.i./ha); 30% with jimsonweed (DATST) (56 DAA, 1870 g a.i./ha).

Regarding `O=C(O)COc1ccc(Cl)cc1Cl` [2,4-D, (2,4-dichlorophenoxy)acetic acid], the figures for the “Postemergence TRZAW Obs” value with winter wheat (TRZAW) (2,4-D alone 125 g a.i./ha) and with winter wheat (TRZAW) (2,4-D alone 250 g a.i./ha) were 35 and 40, respectively. Further, the “Postemergence CHEAL Obs” value in [2] (2,4-D alone 125 g a.i./ha) and in series [2] (2,4-D alone 250 g a.i./ha) was 40 throughout. For the same compound, the “Postemergence HORVW Obs” value with winter barley (HORVW) (2,4-D or MCPA alone 250 g a.i./ha) is listed as 10.

As for `Nc1nc(C2CC2)nc(C(=O)O)c1Cl` [Compound 1, 6-amino-5-chloro-2-cyclopropyl-4-pyrimidinecarboxylic acid], the TRZAW Obs with wheat (TRZAW) (18 DAA, Cpd 1 1 g a.i./ha) was determined as 30%; with wheat (TRZAW) (18 DAA, Cpd 1 4 g a.i./ha), 35%; with wheat (TRZAW) (18 DAA, Cpd 1 16 g a.i./ha) it was 45%.
